Columns and labels:
[1] = test system: human cancer cells; conditions: cited from earlier work
[2] = test system: human cancer cells; conditions: cited from earlier work; remark: listed apart in the source
[3] = test system: relapsed/refractory acute myeloid leukemia; conditions: phase III trial, in combination with cytarabine, over-sixties; cited from earlier work
[4] = test system: MV4-11 (human acute myeloid leukemia cell line); test: In vitro cell growth inhibition test against MV4-11; format: cell-based; conditions: 72 h, MV4-11 cells, 3 days culture, WST-8 (Cell Counting Kit-8), 50% growth inhibition concentration
Method: Test Example 2: In Vitro Cell Growth Inhibition Test Against MV4-11 (Human Acute Myeloid Leukemia Cell Line)
The compound of the present invention was dissolved at a concentration of 1 mM in dimethyl sulfoxide and further diluted into 10.00, 2.50, 0.625, 0.156, 0.039, 0.0098, 0.0024, and 0.00061 μM (final concentrations) using dimethyl sulfoxide and IMDM (Thermo Fisher Scientific Inc., 12440-053) medium. Each of these dilutions was added at 0.05 mL/well to a 96-well flat-bottomed multiplate. An MV4-11 cell suspension was diluted into […] using IMDM (Thermo Fisher Scientific Inc., 12440-053) medium containing […] (fetal bovine serum, Thermo Fisher Scientific Inc.), and this dilution was added at 0.05 mL/well to the compound-containing 96-well flat-bottomed multiplate mentioned above, and cultured at 37° C. for 3 days in an incubator containing 5% carbon dioxide.
(§1) After the culture, Cell Counting Kit-8 (Dojindo Laboratories), which adopts WST-8 as a chromogenic substrate, was added at 10 μL/well, and the cells were cultured under the same conditions as above for 6 hours, followed by measurement of absorbance at 450 nm. A cell survival rate was calculated in terms of 50% growth inhibition concentration (IC50 (μM)) by the least square method with that of a control group defined as 100%.

[5] = test system: NCI-H460 (human non-small cell lung cancer cell line); test: In vitro cell growth inhibition test against NCI-H460; format: cell-based; conditions: 72 h, NCI-H460 cells, 3 days culture, WST-8 (Cell Counting Kit-8), 50% growth inhibition concentration
Method: Test Example 1: In Vitro Cell Growth Inhibition Test Against NCI-H460 (Human Non-Small Cell Lung Cancer Cell Line)
An NCI-H460 cell suspension was inoculated at 4×10^3 cells/100 μL/well (0.1 mL) to a 96-well flat-bottomed multiplate using RPMI-1640 (Sigma-Aldrich Co. LLC, R8758) medium containing 10% […] (fetal bovine serum, Thermo Fisher Scientific Inc.), and cultured at 37° C. for 1 day in an incubator containing 5% carbon dioxide. The compound of the present invention was dissolved at a concentration of 1 mM in dimethyl sulfoxide and further diluted into 5.00, 2.50, 1.25, 0.63, 0.31, 0.16, 0.078, and 0.039 μM (final concentrations) using dimethyl sulfoxide and RPMI-1640 medium. Each of these dilutions was added at 0.1 mL/well to the culture plate of the NCI-H460 cells mentioned above after removal of the medium, and the cells were cultured at 37° C. for 3 days in an incubator containing 5% carbon dioxide.
as §1, with “WST-8 [2-(2-methoxy-4-nitrophenyl)-3-(4-nitrophenyl)-5-(2,4-disulfophenyl)-2H-tetrazolium monosodium salt]” for “WST-8”, “1 hour,” for “6 hours,”

[6] = test system: WI-38 (human fetal lung fibroblast cell line); test: In vitro cell growth inhibition test against WI-38; format: cell-based; conditions: WI-38 normal cells, 12.5 μM compound, 3 days culture, WST-8, control group = 100%
Method: Test Example 4: In Vitro Cell Growth Inhibition Test Against WI-38 (Human Fetal Lung Fibroblast Cell Line)
A WI-38 cell suspension was inoculated at 5×10^3 cells/100 μL/well (0.1 mL) to a 96-well flat-bottomed multiplate using DMEM (Sigma-Aldrich Co. LLC, D6429) medium containing 10% FBS (fetal bovine serum, Nichirei Biosciences Inc.), and cultured at 37° C. for 1 day in an incubator containing 5% carbon dioxide. Compound A or the compound of the present invention was dissolved at a concentration of 10 mM in dimethyl sulfoxide and further diluted into 12.5 μM (final concentration) using dimethyl sulfoxide and RPMI-1640 medium. This dilution was added at 0.1 mL/well to the culture plate of the WI-38 cells mentioned above after removal of the medium, and the cells were cultured at 37° C. for 3 days in an incubator containing 5% carbon dioxide.
as §1, with “1 hour,” for “6 hours,”, “calculated” for “calculated in terms of 50% growth inhibition concentration (IC50 (μM)) by the least square method”

[7] = test system: PC-3 (human prostate cancer cell line); test: In vivo antitumor effect test against PC-3 xenograft; parameters: species or system female Balb/c nu-nu mouse; conditions: PC-3 xenograft in Balb/c nu-nu mice, 20 mg/kg, IV, Q7D ×3, tumor growth inhibition vs vehicle group
Method: Test Example 3: In Vivo Antitumor Effect Test Against PC-3 (Human Prostate Cancer Cell Line)
A suspension of cancer cells (1×10^7 cells/mL) prepared in RPMI culture medium (Sigma-Aldrich Co. LLC, R8758) was subcutaneously inoculated in an amount of 200 μL to the right abdomen of each female Balb/c nu-nu mouse (Charles River Laboratories Japan, Inc.). After tumor engraftment, animals having a sufficient tumor size were randomly assigned to an active (compound A or compound 078) group and a control (vehicle) group.
Each test compound (drug) was dissolved at each administration concentration in physiological saline containing 12.5 mM sodium hydroxide. The administration of the compound or a vehicle was started on the day of randomization and continued once a week for 21 days. During the test period, the body weights were measured twice a week throughout the treatment period, and tumors were measured twice a week using calipers. The tumor volumes were measured according to the expression V=L×W^2/2 (V: volume, mm3; L: length, mm; W: width, mm). Using the following expression:
% TGI=100−((Average tumor volume of the treatment group Average tumor volume of the control group)×100), tumor growth inhibition was calculated on the basis of the average tumor volume of the vehicle group.

IC50 [4] [nM] | IC50 [5] [nM] | SMILES | antitumor effect in vitro [1] | antitumor effect in vivo [2] | therapeutic effect as compared with a placebo group [3] | Cell survival rate (%) [6] [%] | % TGI [7] [%]
– | – | CNC1CN(c2ccc3c(=O)c(C(=O)O)cn(-c4nccs4)c3n2)CC1OC (centres unmarked) [1,4-dihydro-7-(3-methoxy-4-methylamino-1-pyrrolidinyl)-4-oxo-1-(2-thiazolyl)-1,8-naphthyridine-3-carboxylic acid] | excellent antitumor effect | excellent antitumor effect | significant therapeutic effect | – | –
1400 | 92 | Cc1cc(N2CC(C(=O)NCC3CCCCO3)C2)nc2c1c(=O)c(C(=O)O)cn2-c1nccs1 (centres unmarked) [Example 078, 5-methyl-7-{3-[(oxan-2-ylmethyl)carbamoyl]azetidin-1-yl}-4-oxo-1-(1,3-thiazol-2-yl)-1,4-dihydro-1,8-naphthyridine-3-carboxylic acid] | – | – | – | 68 | 49.2
10300 | 370 | CNC1CN(c2ccc3c(=O)c(C(=O)O)cn(-c4nccs4)c3n2)CC1OC (centres unmarked) [Compound A, 1,4-Dihydro-7-(3-methoxy-4-methylamino-1-pyrrolidinyl)-4-oxo-1-(2-thiazolyl)-1,8-naphthyridine-3-carboxylic acid, reference compound] | – | – | – | 26 | 21.7
